Data published in patent publication US20210023115A1, “COMPOSITION OF ANTI-TUMOR COMPOUND DRUG AND APPLICATION THEREOF IN FIGHTING TUMORS” (HANGZHOU XINGAO BIOTECHNOLOGY CO. LTD, priority 2018, published 2021).

System: subcutaneous transplanted tumors (CT26, LL/2, A375, MNK-45, SK-OV-3)
Assay: Inhibition of growth of subcutaneous transplanted tumors in tumor-bearing mouse model
Assay type: in vivo
Settings: 10 mg/kg
Text: Embodiment 4: Test of Anti-Tumor Effect (i.e., The Inhibition Effect on the Growth of Subcutaneous Transplanted Tumors in Animals) of the Anti-Tumor Compound Drug with a Tumor-Bearing Mouse Model
BALB/c ordinary mice and C57/BL6 ordinary mice, male, 18-20 g in weight, 7-8 weeks old, SPF grade, purchased from Shanghai SLAC Laboratory Animal Co., Ltd. [Laboratory Animal Quality Certificate Number: SCXK (Shanghai) 2007-0005].
Mice are given intravenous injections, and one dose group is set: cGAMP, 10 mg/kg; compound anti-tumor drug, 10 mg/kg
Positive control: cGAMP, 10 mg/kg in dose
Administration route: administration by intraperitoneal injection
Administration volume: 100 μl/animal
Number of times of administration: continuous administration for 21 days, once every day
Number of animals in each group: 10
Mouse colorectal cancer cell line CT26, mouse Lewis lung cancer cell line LL/2, human ovarian cancer cell line SK-OV-3, human melanoma cell line A375, and human gastric cancer cell line MNK-45, which are all purchased from the Cell Bank of the Chinese Academy of Sciences.
The administration is continued for 21 days. 21 days later, the mice are killed and the tumors are weighed. Tumor inhibition rate=[1−mean tumor weight of experimental group/mean tumor weight of group A)]×100%.
Data is expressed with x±s, and processed with SPSS10.0 software. […]

**Q.** `Nc1nc2c(ncn2[C@@H]2O[C@@H]3COP(=O)(O)O[C@H]4[C@@H](O)[C@H](n5cnc6c(N)ncnc65)O[C@@H]4COP(=O)(O)O[C@@H]2[C@@H]3O)c(=O)[nH]1` [cGAMP, Cyclic [G(2′,5′)pA(3′,5′)p]] was tested. Which growth of tumors (once every day for 21 days, subcutaneous transplanted tumor models in mice) did it give?
**A.** obviously inhibit the growth of tumors

**Q.** What about the “weights of tumors vs negative control group” value (after administration for 21 days, P<0.05, P<0.01) of the same compound?
**A.** significantly lower than those of the negative control group
